Laboratory results taken from the CheMixHub viscosity set.
± gives the uncertainty stated by the source.

Experiment: xn = mol fraction of the nth substance listed

COCCOC + CCCCCCCO
101 kPa
Conditions | viscosity [mPa·s]
293.15 K, x1 = 0.04689 | 5.696 ± 0.06
293.15 K, x1 = 0.1108 | 4.364 ± 0.046
293.15 K, x1 = 0.1958 | 3.168 ± 0.033
293.15 K, x1 = 0.2906 | 2.308 ± 0.024
293.15 K, x1 = 0.402 | 1.645 ± 0.017
293.15 K, x1 = 0.4906 | 1.283 ± 0.013
293.15 K, x1 = 0.6674 | 0.843 ± 0.009
293.15 K, x1 = 0.7068 | 0.768 ± 0.008
293.15 K, x1 = 0.8006 | 0.631 ± 0.007
293.15 K, x1 = 0.894 | 0.525 ± 0.006
293.15 K, x1 = 0.948 | 0.477 ± 0.005
303.15 K, x1 = 0.03301 | 4.403 ± 0.047
303.15 K, x1 = 0.1088 | 3.286 ± 0.035
303.15 K, x1 = 0.1924 | 2.49 ± 0.026
303.15 K, x1 = 0.2936 | 1.802 ± 0.019
303.15 K, x1 = 0.4015 | 1.325 ± 0.014
303.15 K, x1 = 0.4903 | 1.066 ± 0.011
303.15 K, x1 = 0.594 | 0.842 ± 0.009
303.15 K, x1 = 0.7001 | 0.671 ± 0.007
303.15 K, x1 = 0.8062 | 0.542 ± 0.006
303.15 K, x1 = 0.8901 | 0.467 ± 0.005
303.15 K, x1 = 0.9469 | 0.425 ± 0.005
313.15 K, x1 = 0.04399 | 3.176 ± 0.034
313.15 K, x1 = 0.1188 | 2.473 ± 0.026
313.15 K, x1 = 0.1968 | 1.933 ± 0.021
313.15 K, x1 = 0.2941 | 1.478 ± 0.016
313.15 K, x1 = 0.404 | 1.121 ± 0.012
313.15 K, x1 = 0.4883 | 0.918 ± 0.01
313.15 K, x1 = 0.6006 | 0.717 ± 0.008
313.15 K, x1 = 0.6962 | 0.591 ± 0.006
313.15 K, x1 = 0.8094 | 0.482 ± 0.005
313.15 K, x1 = 0.9 | 0.41 ± 0.004
313.15 K, x1 = 0.9404 | 0.386 ± 0.004

OCCNCCO + C[N+](C)(C)CCO.[Cl-]
viscosity [mPa·s], 101 kPa
Conditions | x2 = 0.091 | x2 = 0.111 | x2 = 0.143
293.15 K | 611.4 ± 38 | 565.3 ± 35 | 567 ± 35
313.15 K | 151.4 ± 7.5 | 150.4 ± 7.4 | 149.2 ± 7.3

CCC(C)=O + CC(C)CO
viscosity [mPa·s], 101.3 kPa
Conditions | x2 = 0.0854 | x2 = 0.1986 | x2 = 0.3001 | x2 = 0.3904 | x2 = 0.4974 | x2 = 0.5941 | x2 = 0.6983 | x2 = 0.7991 | x2 = 0.8965
298.15 K | 0.423 ± 0.004 | 0.477 ± 0.005 | 0.538 ± 0.005 | 0.613 ± 0.006 | 0.734 ± 0.007 | 0.885 ± 0.008 | 1.13 ± 0.011 | 1.5 ± 0.014 | 2.115 ± 0.021
308.15 K | 0.38 ± 0.004 | 0.426 ± 0.004 | 0.476 ± 0.005 | 0.535 ± 0.005 | 0.63 ± 0.006 | 0.748 ± 0.007 | 0.933 ± 0.009 | 1.206 ± 0.011 | 1.637 ± 0.016
318.15 K | 0.344 ± 0.004 | 0.382 ± 0.004 | 0.424 ± 0.004 | 0.473 ± 0.005 | 0.548 ± 0.005 | 0.64 ± 0.006 | 0.781 ± 0.007 | 0.983 ± 0.009 | 1.289 ± 0.013

CCC(C)=O + CCCCO
viscosity [mPa·s]
Conditions | 298.15 K | 308.15 K | 318.15 K
100 kPa, x1 = 0.0997 | – | 1.465 ± 0.011 | –
100 kPa, x1 = 0.1999 | – | 1.115 ± 0.0096 | –
101.3 kPa, x2 = 0.0987 | 0.428 ± 0.004 | 0.385 ± 0.004 | 0.349 ± 0.004
101.3 kPa, x2 = 0.1988 | 0.476 ± 0.005 | 0.425 ± 0.004 | 0.382 ± 0.004
101.3 kPa, x2 = 0.3004 | 0.538 ± 0.005 | 0.476 ± 0.005 | 0.425 ± 0.004
101.3 kPa, x2 = 0.3991 | 0.616 ± 0.006 | 0.54 ± 0.005 | 0.478 ± 0.005
101.3 kPa, x2 = 0.4973 | 0.722 ± 0.007 | 0.626 ± 0.006 | 0.547 ± 0.005
101.3 kPa, x2 = 0.5972 | 0.861 ± 0.008 | 0.737 ± 0.007 | 0.636 ± 0.006
101.3 kPa, x2 = 0.6979 | 1.06 ± 0.009 | 0.891 ± 0.008 | –
101.3 kPa, x2 = 0.7995 | 1.361 ± 0.012 | 1.121 ± 0.01 | 0.931 ± 0.008
101.3 kPa, x2 = 0.9028 | – | 1.458 ± 0.013 | 1.188 ± 0.011

COC(C)=O + CCC(C)O
298.15 K, 101.33 kPa
Conditions | viscosity [mPa·s]
x1 = 0.1056 | 1.854 ± 0.061
x1 = 0.2017 | 1.275 ± 0.043
x1 = 0.3076 | 0.921 ± 0.032
x1 = 0.3884 | 0.771 ± 0.027
x1 = 0.4935 | 0.64 ± 0.023
x1 = 0.5697 | 0.559 ± 0.021
x1 = 0.6653 | 0.485 ± 0.018
x1 = 0.7801 | 0.429 ± 0.017
x1 = 0.876 | 0.411 ± 0.016

COc1ccccc1N + OCCc1ccccc1
viscosity [mPa·s], 100 kPa
Conditions | x1 = 0.0957 | x1 = 0.1852 | x1 = 0.2904 | x1 = 0.3921 | x1 = 0.4911 | x1 = 0.6027 | x1 = 0.7023 | x1 = 0.8005 | x1 = 0.8904
303.15 K | 8.66 ± 0.24 | 8.29 ± 0.23 | 7.87 ± 0.22 | 7.45 ± 0.2 | 7.04 ± 0.19 | 6.58 ± 0.18 | 6.17 ± 0.17 | 5.76 ± 0.16 | 5.38 ± 0.14
308.15 K | 6.95 ± 0.19 | 6.71 ± 0.19 | 6.43 ± 0.18 | 6.16 ± 0.17 | 5.9 ± 0.16 | 5.6 ± 0.15 | 5.33 ± 0.14 | 5.06 ± 0.14 | 4.82 ± 0.13
313.15 K | 5.91 ± 0.16 | 5.75 ± 0.16 | 5.55 ± 0.15 | 5.36 ± 0.15 | 5.18 ± 0.14 | 4.97 ± 0.13 | 4.77 ± 0.13 | 4.58 ± 0.12 | 4.41 ± 0.12
318.15 K | 4.89 ± 0.14 | 4.8 ± 0.13 | 4.69 ± 0.13 | 4.58 ± 0.13 | 4.47 ± 0.12 | 4.35 ± 0.12 | 4.23 ± 0.11 | 4.12 ± 0.11 | 4.02 ± 0.11

c1ccc2ncccc2c1 + Cc1cccc(O)c1
viscosity [mPa·s], 101.3 kPa
Conditions | x1 = 0.0998 | x1 = 0.198 | x1 = 0.3012 | x1 = 0.3984 | x1 = 0.4984 | x1 = 0.5985 | x1 = 0.6965 | x1 = 0.798 | x1 = 0.8948
298 K | 15.26 ± 0.35 | 19.93 ± 0.52 | 25.3 ± 0.72 | 22.87 ± 0.62 | 15.79 ± 0.36 | 11.02 ± 0.19 | 7.376 ± 0.094 | 5.594 ± 0.047 | 4.358 ± 0.041
303 K | 11.51 ± 0.22 | 15.03 ± 0.34 | 19.24 ± 0.49 | 17.85 ± 0.43 | 12.71 ± 0.24 | 8.925 ± 0.12 | 6.266 ± 0.058 | 4.872 ± 0.042 | 3.761 ± 0.033
308 K | 8.895 ± 0.14 | 11.46 ± 0.21 | 15.1 ± 0.33 | 14.05 ± 0.29 | 9.986 ± 0.16 | 7.269 ± 0.082 | 5.301 ± 0.046 | 4.223 ± 0.037 | 3.291 ± 0.028
313 K | 6.912 ± 0.084 | 8.917 ± 0.13 | 11.94 ± 0.22 | 11.42 ± 0.2 | 8.111 ± 0.11 | 6.172 ± 0.057 | 4.512 ± 0.042 | 3.686 ± 0.032 | 2.959 ± 0.025
318 K | 5.586 ± 0.051 | 7.128 ± 0.083 | 9.595 ± 0.18 | 9.188 ± 0.16 | 6.608 ± 0.065 | 5.184 ± 0.048 | 3.835 ± 0.031 | 3.204 ± 0.029 | 2.62 ± 0.022

COCCOC + CO
298.15 K, 101 kPa
Conditions | viscosity [mPa·s]
x1 = 0.03801 | 0.5333 ± 0.0039
x1 = 0.08163 | 0.5252 ± 0.0039
x1 = 0.1322 | 0.5142 ± 0.0038
x1 = 0.1916 | 0.4946 ± 0.0037
x1 = 0.2623 | 0.479 ± 0.0036
x1 = 0.3478 | 0.4627 ± 0.0035
x1 = 0.4534 | 0.4496 ± 0.0034
x1 = 0.5871 | 0.4355 ± 0.0033
x1 = 0.7619 | 0.4209 ± 0.0032

COc1ccccc1N + CC(C)(C)O
viscosity [mPa·s], 101 kPa
Conditions | x1 = 0.1116 | x1 = 0.186 | x1 = 0.2667 | x1 = 0.3547 | x1 = 0.4852 | x1 = 0.5945 | x1 = 0.6737 | x1 = 0.7585 | x1 = 0.8979
303.15 K | 3.186 ± 0.14 | 3.335 ± 0.15 | 3.499 ± 0.16 | 3.676 ± 0.16 | 3.932 ± 0.17 | 4.141 ± 0.18 | 4.289 ± 0.19 | 4.448 ± 0.2 | 4.714 ± 0.21
308.15 K | 2.904 ± 0.13 | 3.046 ± 0.14 | 3.199 ± 0.14 | 3.363 ± 0.15 | 3.602 ± 0.16 | 3.797 ± 0.17 | 3.935 ± 0.17 | 4.083 ± 0.18 | 4.327 ± 0.19
313.15 K | 2.371 ± 0.11 | 2.521 ± 0.12 | 2.681 ± 0.12 | 2.855 ± 0.13 | 3.114 ± 0.14 | 3.333 ± 0.15 | 3.493 ± 0.16 | 3.669 ± 0.16 | 3.962 ± 0.17
318.15 K | 1.967 ± 0.092 | 2.116 ± 0.098 | 2.277 ± 0.11 | 2.451 ± 0.11 | 2.718 ± 0.12 | 2.95 ± 0.13 | 3.123 ± 0.14 | 3.314 ± 0.15 | 3.639 ± 0.16
